Test results reported in the supplement of paper PMC11061612.

Key:
Assay in all cases: Bliss excess, mean over the matrix (fraction); higher = more synergy
[1] = tested on: 639-V (Bladder Carcinoma)
In short: (§1)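 After 24 hours at 37°C and 5% CO2 in 1536-well plates, cells in DMEM/F12 or RPMI plus 10% FBS received two-drug dose matrices for 72 hours. Viability came from CellTiter-Glo 2.0 luminescence and was scaled as inhibition, anchored at 0 by vehicle wells and at 1 by blank wells. Combination Emax is taken as the second-highest inhibition in the matrix, and Bliss excess as the observed combination effect less EA + EB − EA·EB, with EA and EB the single-agent effects.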

[2] = tested on: CAPAN-1 (Pancreatic Carcinoma)
In short: as §1

[3] = tested on: EN (Endometrial Carcinoma)
In short: as §1

[4] = tested on: HCC-15 (Squamous Cell Lung Carcinoma)
In short: as §1

[5] = tested on: HDLM-2 (Hodgkin's Lymphoma)
In short: as §1

[6] = tested on: HO-1-u-1 (Oral Cavity Carcinoma)
In short: as §1

[7] = tested on: Hs-633T (Other Solid Carcinomas)
In short: as §1

[8] = tested on: K5 (Thyroid Gland Carcinoma)
In short: as §1

[9] = tested on: LoVo (Colorectal Carcinoma)
In short: as §1

[10] = tested on: MHH-PREB-1 (B-Cell Non-Hodgkin's Lymphoma)
In short: as §1

[11] = tested on: Mewo (Melanoma)
In short: as §1

[12] = tested on: NB14 (Neuroblastoma)
In short: as §1

[13] = tested on: NCI-H2461 (Mesothelioma)
In short: as §1

[14] = tested on: NCI-H2795 (Mesothelioma)
In short: as §1

[15] = tested on: NCI-H69 (Small Cell Lung Carcinoma)
In short: as §1

[16] = tested on: RPMI-6666 (Non-Cancerous)
In short: as §1

[17] = tested on: SH-4 (Melanoma)
In short: as §1

[18] = tested on: SK-OV-3 (Ovarian Carcinoma)
In short: as §1

[19] = tested on: SW626 (Colorectal Carcinoma)
In short: as §1

[20] = tested on: UMC-11 (Other Solid Carcinomas)
In short: as §1

SMILES	Bliss excess [1]	Bliss excess [2]	Bliss excess [3]	Bliss excess [4]	Bliss excess [5]	Bliss excess [6]	Bliss excess [7]	Bliss excess [8]	Bliss excess [9]	Bliss excess [10]	Bliss excess [11]	Bliss excess [12]	Bliss excess [13]	Bliss excess [14]	Bliss excess [15]	Bliss excess [16]	Bliss excess [17]	Bliss excess [18]	Bliss excess [19]	Bliss excess [20]
CCN(CCO)CCCOc1ccc2c(Nc3cc(CC(=O)Nc4cccc(F)c4)[nH]n3)ncnc2c1 [AZD2811] + O=C(c1cc(Cc2n[nH]c(=O)c3ccccc23)ccc1F)N1CCN(C(=O)C2CC2)CC1 [Olaparib] (first compound max 1 µM, 7x7, partner max 10 µM)	0.0445	-0.0091	-0.0657	-0.0123	-0.0224	0.0288	0	0.0162	-0.0452	0.0032	-0.0112	-0.0384	-0.0638	0.052	-0.0259	-0.0615	-0.0234	-0.041	-0.0134	-0.0715
CN(CCO)CC[C@H](CSc1ccccc1)Nc1ccc(S(=O)(=O)NC(=O)c2ccc(N3CCC([C@@H](O)c4ccccc4-c4ccc(Cl)cc4)CC3)cc2)cc1S(=O)(=O)C(F)(F)F [AZD4320] + C1CN(CCC1(C(=O)N[C@@H](CCO)C2=CC=C(C=C2)Cl)N)C3=NC=NC4=C3C=CN4 [Capivasertib] (first compound max 1 µM, 7x7, partner max 3 µM)	-0.0503	-0.0405	-0.0343	-0.0082	-0.0284	-0.0621	-0.0193	-0.0525	-0.071	-0.029	-0.0262	0.0472	-0.0564	-0.0572	-0.0153	0.0083	-0.0462	-0.0663	-0.0682	-0.0908
CN(CCO)CC[C@H](CSc1ccccc1)Nc1ccc(S(=O)(=O)NC(=O)c2ccc(N3CCC([C@@H](O)c4ccccc4-c4ccc(Cl)cc4)CC3)cc2)cc1S(=O)(=O)C(F)(F)F [AZD4320] + C=CCn1c(=O)c2cnc(Nc3ccc(N4CCN(C)CC4)cc3)nc2n1-c1cccc(C(C)(C)O)n1 [AZD1775] (first compound max 1 µM, partner max 1 µM)	-0.0437	0.0172	-0.0337	0.0202	0.106	0.0066	0.0672	0.0069	0.0093	-0.0454	0.0306	0.0415	0.016	-0.0225	-0.0213	0.0219	0.0103	0.0069	-0.0124	-0.0122
CN(CCO)CC[C@H](CSc1ccccc1)Nc1ccc(S(=O)(=O)NC(=O)c2ccc(N3CCC([C@@H](O)c4ccccc4-c4ccc(Cl)cc4)CC3)cc2)cc1S(=O)(=O)C(F)(F)F [AZD4320] + CCN(CCO)CCCOc1ccc2c(Nc3cc(CC(=O)Nc4cccc(F)c4)[nH]n3)ncnc2c1 [AZD2811] (first compound max 1 µM, 7x7, partner max 1 µM)	0.0502	-0.0309	-0.0073	-0.0091	0.0781	0.107	-0.0212	-0.0283	-0.0278	0.0034	0.0053	0	-0.0195	0.0386	0.035	0.17	-0.0236	-0.0522	0.0278	-0.0565
CN(CCO)CC[C@H](CSc1ccccc1)Nc1ccc(S(=O)(=O)NC(=O)c2ccc(N3CCC([C@@H](O)c4ccccc4-c4ccc(Cl)cc4)CC3)cc2)cc1S(=O)(=O)C(F)(F)F [AZD4320] + CN(C)CCCOc1ccc(-c2ccc3ncc4c(c3c2)n(C2CCOCC2)c(=O)n4C)cn1 [AZD0156] (first compound max 1 µM, 7x7, partner max 1 µM)	-0.0209	-0.0654	-0.0085	-0.0137	-0.0667	0.0032	-0.014	-0.0779	-0.0622	0.0075	-0.0466	0.061	-0.0479	-0.0596	-0.0465	-0.0597	-0.0238	-0.0364	-0.0545	-0.0015
CN(CCO)CC[C@H](CSc1ccccc1)Nc1ccc(S(=O)(=O)NC(=O)c2ccc(N3CCC([C@@H](O)c4ccccc4-c4ccc(Cl)cc4)CC3)cc2)cc1S(=O)(=O)C(F)(F)F [AZD4320] + C[C@@H]1COCCN1C2=NC(=NC(=C2)C3(CC3)[S@](=N)(=O)C)C4=C5C=CNC5=NC=C4 [AZD6738] (first compound max 1 µM, 7x7, partner max 10 µM)	-0.0022	0.0034	-0.056	-0.0124	-0.0171	0.021	-0.0092	-0.0512	-0.0355	-0.039	-0.0275	-0.0372	-0.0341	0.0173	-0.0446	-0.0271	-0.0411	-0.0984	-0.0606	-0.028
CN(CCO)CC[C@H](CSc1ccccc1)Nc1ccc(S(=O)(=O)NC(=O)c2ccc(N3CCC([C@@H](O)c4ccccc4-c4ccc(Cl)cc4)CC3)cc2)cc1S(=O)(=O)C(F)(F)F [AZD4320] + Cc1cc2ncnn2cc1Nc1ncc2c(n1)n(C1CCOCC1)c(=O)n2C [AZD7648] (first compound max 1 µM, 7x7, partner max 10 µM)	-0.0244	-0.0508	-0.01	-0.0214	-0.0018	-0.0172	0.0109	-0.0105	0.0195	-0.0041	-0.0104	0.0356	-0.0484	-0.0395	-0.0474	0.0311	-0.0459	-0.063	-0.0526	0.0377
CN(CCO)CC[C@H](CSc1ccccc1)Nc1ccc(S(=O)(=O)NC(=O)c2ccc(N3CCC([C@@H](O)c4ccccc4-c4ccc(Cl)cc4)CC3)cc2)cc1S(=O)(=O)C(F)(F)F [AZD4320] + Cn1cnc2c(F)c(Nc3ccc(Br)cc3Cl)c(C(=O)NOCCO)cc21 [Selumetinib] (first compound max 1 µM, 7x7, partner max 3 µM)	0.22	0.0665	-0.0088	0.0827	0.0231	0.0328	-0.0329	-0.0637	0.0195	0.0272	0.0374	0.0033	0.0248	-0.02	-0.0245	-0.0047	0.107	-0.0362	0.0271	-0.0068
COc1nnc2ccc(N3CCC(c4ccc(OCCN5CCN(C)C(=O)[C@H]5C)cc4)CC3)nn12 [AZD5153] + C=CCn1c(=O)c2cnc(Nc3ccc(N4CCN(C)CC4)cc3)nc2n1-c1cccc(C(C)(C)O)n1 [AZD1775] (first compound max 1 µM, partner max 1 µM)	-0.0367	-0.0397	-0.0753	-0.0356	-0.125	-0.0526	-0.0516	-0.0111	-0.0349	0.007	-0.0245	-0.073	-0.0344	-0.0308	-0.0303	-0.0821	-0.106	-0.0428	0.0045	0.0058
COc1nnc2ccc(N3CCC(c4ccc(OCCN5CCN(C)C(=O)[C@H]5C)cc4)CC3)nn12 [AZD5153] + CC1(C)CCC(CN2CCN(c3ccc(C(=O)NS(=O)(=O)c4ccc(NCC5CCOCC5)c([N+](=O)[O-])c4)c(Oc4cnc5[nH]ccc5c4)c3)CC2)=C(c2ccc(Cl)cc2)C1 [Venetoclax] (first compound max 1 µM, 7x7, partner max 1 µM)	-0.0962	-0.0874	-0.0567	-0.0255	-0.0645	-0.0352	-0.0373	-0.049	-0.0378	-0.055	-0.0605	-0.0109	-0.0438	-0.041	-0.0445	-0.0153	-0.124	-0.0371	-0.0676	0.0234
COc1nnc2ccc(N3CCC(c4ccc(OCCN5CCN(C)C(=O)[C@H]5C)cc4)CC3)nn12 [AZD5153] + CCN(CCO)CCCOc1ccc2c(Nc3cc(CC(=O)Nc4cccc(F)c4)[nH]n3)ncnc2c1 [AZD2811] (first compound max 1 µM, 7x7, partner max 1 µM)	-0.063	-0.08	-0.0918	-0.0646	0.0003	-0.121	-0.0285	-0.0485	-0.0623	0.0074	-0.0578	-0.0546	-0.0421	-0.0807	0.0048	-0.0656	-0.0194	-0.0703	-0.0348	-0.123
COc1nnc2ccc(N3CCC(c4ccc(OCCN5CCN(C)C(=O)[C@H]5C)cc4)CC3)nn12 [AZD5153] + C[C@@H]1COCCN1C2=NC(=NC(=C2)C3(CC3)[S@](=N)(=O)C)C4=C5C=CNC5=NC=C4 [AZD6738] (first compound max 1 µM, 7x7, partner max 10 µM)	0.0933	-0.022	0.0191	0.069	-0.0567	-0.0146	0.0037	-0.0057	0.0603	0.0605	-0.007	-0.043	-0.0571	0.0037	0.0358	-0.17	-0.0438	-0.0285	0.054	0.0169
COc1nnc2ccc(N3CCC(c4ccc(OCCN5CCN(C)C(=O)[C@H]5C)cc4)CC3)nn12 [AZD5153] + Cc1c2c(nn1C)CSCc1cc(n(C)n1)CSc1cc(c3ccccc3c1)OCCCc1c(C(=O)O)n(C)c3c-2c(Cl)ccc13 [AZD5991] (first compound max 1 µM, 7x7, partner max 1 µM)	-0.0552	-0.0534	0.0144	-0.0105	-0.0401	-0.0055	0.0227	-0.0635	-0.0383	-0.0418	-0.0453	0.034	-0.0189	0.0103	-0.0507	-0.0409	-0.0628	-0.048	-0.0374	0.0518
